Laboratory results taken from PMC10556057, “The proton channel OTOP1 is a sensor for the taste of ammonium chloride” (Nature Communications, 2023).

Target: T1, mOTOP1 (Mus musculus, UniProt Q80VM9)
T1 construct: gene Otop1; full length in HEK-293 / PAC-KO cells; homodimer
T1 sequence (Q80VM9 1-600): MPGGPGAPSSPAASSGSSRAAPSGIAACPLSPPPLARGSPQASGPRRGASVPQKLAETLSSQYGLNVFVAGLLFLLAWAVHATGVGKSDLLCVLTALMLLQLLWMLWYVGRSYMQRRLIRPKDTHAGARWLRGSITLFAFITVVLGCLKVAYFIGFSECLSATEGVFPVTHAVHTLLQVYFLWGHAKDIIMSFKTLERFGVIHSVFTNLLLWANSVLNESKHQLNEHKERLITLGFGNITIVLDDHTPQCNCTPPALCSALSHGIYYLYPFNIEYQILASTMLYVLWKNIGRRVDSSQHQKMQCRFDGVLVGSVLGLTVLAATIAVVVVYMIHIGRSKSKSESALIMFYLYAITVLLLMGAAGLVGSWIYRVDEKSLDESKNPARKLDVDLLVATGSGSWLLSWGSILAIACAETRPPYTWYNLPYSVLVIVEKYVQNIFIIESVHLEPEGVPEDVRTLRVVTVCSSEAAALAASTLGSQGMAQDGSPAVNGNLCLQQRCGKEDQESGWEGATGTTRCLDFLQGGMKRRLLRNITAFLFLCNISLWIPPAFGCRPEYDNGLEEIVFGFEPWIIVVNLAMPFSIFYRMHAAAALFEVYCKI
Experiment: whole-cell patch clamp, inward current in HEK-293
Assay type: cell-based

N [NH4Cl]
EC50: 18.7 mM
